# Assays:
# Conditions in all cases: pH 7.4; 30 °C
# [1] = molecular target: T1, Fatty-acid amide hydrolase 1 (Homo sapiens, UniProt O00519); assay: FAAH Inhibition Assay (30 min Preincubation)
# T1 sequence (O00519 whole entry): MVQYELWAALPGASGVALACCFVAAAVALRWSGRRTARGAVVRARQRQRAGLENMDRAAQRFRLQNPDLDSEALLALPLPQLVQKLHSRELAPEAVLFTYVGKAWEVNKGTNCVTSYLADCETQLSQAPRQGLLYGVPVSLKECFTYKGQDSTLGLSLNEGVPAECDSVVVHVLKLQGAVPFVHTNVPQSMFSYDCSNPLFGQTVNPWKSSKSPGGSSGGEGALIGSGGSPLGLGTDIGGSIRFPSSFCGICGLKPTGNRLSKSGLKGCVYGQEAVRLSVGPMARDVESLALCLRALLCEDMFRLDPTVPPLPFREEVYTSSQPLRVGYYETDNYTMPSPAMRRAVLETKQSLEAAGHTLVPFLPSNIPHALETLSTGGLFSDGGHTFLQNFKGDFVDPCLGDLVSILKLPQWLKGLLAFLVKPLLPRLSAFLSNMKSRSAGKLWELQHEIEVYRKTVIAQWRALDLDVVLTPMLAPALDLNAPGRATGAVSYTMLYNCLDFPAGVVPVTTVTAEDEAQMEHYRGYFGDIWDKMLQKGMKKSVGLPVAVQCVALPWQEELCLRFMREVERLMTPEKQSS
# Description: (§1) FAAH activity was measured by following the production of ammonia generated from the hydrolysis of oleamide by FAAH. GDH catalyzes the condensation of ammonia and alpha-ketoglutarate to glutamate with a concomitant conversion of NADH to nicotinamide adenine dinucleotide, oxidized form (NAD+), which is spectrophotometrically measured at 340 nm. Test compounds were preincubated with FAAH at room temperature for 30 min. The reaction was initiated with the addition of substrate oleamide. The absorbance at 340 nm was collected over a period of 30 min with reading taken in 10-s intervals using a spectrophotometer.
# [2] = molecular target: T1, Fatty-acid amide hydrolase 1; assay: FAAH Inhibition Assay (60 min Preincubation)
# Description: as §1, with “for 60” for “for 30”
# [3] = molecular target: T1, Fatty-acid amide hydrolase 1; assay: FAAH Inhibition Assay (5 min Preincubation)
# Description: as §1, with “for 5” for “for 30”
# [4] = molecular target: T1, Fatty-acid amide hydrolase 1; assay: FAAH Inhibition Assay (15 min Preincubation)
# Description: as §1, with “for 15” for “for 30”
structure (smiles),measurement,setting,value
O=C(Nc1ccccc1)N1CCN(Cc2ccc3ccccc3n2)CC1 [N-phenyl-4-(quinolin-2-ylmethyl)piperazine-1-carboxamide],IC50,[1],473 nM
same,IC50,[2],33 nM
same,IC50,[3],991 nM
same,IC50,[4],687 nM

# From BindingDB's records for doi:10.1021/bi701378g (Pfizer, 2007)
